Results reported in patent US12528769B2, “Synthesis of (2S,5R)-5-(2-chlorophenyl)-1-(2′-methoxy-[1,1′-biphenyl]-4-carbonyl)pyrrolidine-2-carboxylic acid” (EPICS THERAPEUTICS, priority 2020, dated 2026).
Like-named read-outs stand apart in the source and are kept apart here.

Experiments:
Format in all cases: physicochemical
Solubility in water = details: for Native pH: 150 mg material in 1.0 mL deionized water, before pH adjustment; for solubility: deionized water, pH 7.4, aqueous buffer, thermodynamic from solid
Procedure: Method. The solubility in water was studied as described hereafter. 150 mg of the studied materials of (1), (1·Na) and (1·K) were transferred to a glass vial and 1.0 mL of deionized water was added, vortex and ultrasonic treatment cycles were applied during 5 min. Then pH was checked and adjusted to pH=9.0-10.0 range by accurate addition of 2M aqueous solution of NaOH for (1) and (1·Na) or KOH for (1·K). Then several cycles of vortex and ultrasonic treatment were applied for 30 min. pH was adjusted to pH=7.2-7.6 range by careful addition of NaOH or KOH or HCl aqueous solutions. Vortex and ultrasonic treatment cycles and pH adjustments were repeated until pH stabilized at pH=7.2-7.6 range. Then the suspensions were centrifuged at 3000 rpm and supernatant was filtered thought membrane filter. The resulting filtrate was diluted in 1000 folds with DMSO and analyzed by HPLC against standard solution with known concentration.

[1] = Forced degradation: photolytic stability; details: for Photolytic stability, purity (%): solutions 1 mg/mL in ACN/water (3:7), cool daylight lamp, around 22° C.; for Initial purities, purity (%): T0, baseline of the photolytic and thermal stability studies; for Decrease of purity in the photolytic stability assay: after 3 weeks
Procedure: For photolytic stability, cool daylight lamp OSRAM DULUX TWIST 23W 1600 lm 6500 K located in 20 cm distance from the studied samples was used. Samples were prepared at 1 mg/mL concentration in ACN/water (3:7 v/v) solution and exposed to light in capped glass vials placed on reflective surface at ambient temperature (around 22° C.).
(§1) Samples were analyzed by RP-HPLC and Chiral HPLC at TO, after 1 week and after 3 weeks. For RP-HPLC analysis samples were analyzed directly from solutions used for stability study. For Chiral HPLC, aliquots were evaporated in Genevac at 40° C. and re-dissolved in the mobile phase.

[2] = Forced degradation: thermal stability; details: for Thermal stability, purity (%): solids at 115° C.; for Decrease of purity in the thermal stability assay: after 3 weeks
Procedure: For thermal stability powders were exposed to elevated temperature in capped glass vials kept inside thermostatic oven at 115° C.
as §1

[3] = water, pH adjusted to 7.2-7.6, filtrate analysed by HPLC, read-out: Maximal solubility pH 7.4

| Native pH (Solubility in water) | Maximal solubility pH 7.4 (Solubility in water; water, pH adjusted to 7.2-7.6, filtrate analysed by HPLC) [mg/mL] | solubility (Solubility in water; [3]) [mg/mL] | solubility (Solubility in water; water, read-out: Aqueous solubility (confirmed)) [mg/mL] | Increase of aqueous solubility compared with the free acid (1) (Solubility in water; water, pH 7.4) [fold] | Increase of aqueous solubility compared with the potassium salt (1·K) (Solubility in water; water, pH 7.4) [fold] | Photolytic stability, purity (%) ([1]; 1 week) | Photolytic stability, purity (%) ([1]; 3 weeks) | Initial purities, purity (%) [1] [%] | Decrease of purity in the photolytic stability assay [1] [%] | Thermal stability, purity (%) ([2]; 1 week) | Thermal stability, purity (%) ([2]; 3 weeks) | Decrease of purity in the thermal stability assay [2] [%] | Solubility in water (in words) (Solubility in water; acid form) | SMILES |
| --- | --- | --- | --- | --- | --- | --- | --- | --- | --- | --- | --- | --- | --- | --- |
| 7 | 87 |  |  |  |  |  |  |  |  |  |  |  |  | COc1ccccc1-c1ccc(C(=O)N2[C@@H](c3ccccc3Cl)CC[C@H]2C(=O)[O-])cc1.[K+] [1·K] |
| 7 |  | 129 | ~130 | 2 | 1.5 | 98.5 | 97.0 | 99.3 | 2.3 | 99.1 | 98.9 | 0.4 |  | COc1ccccc1-c1ccc(C(=O)N2[C@@H](c3ccccc3Cl)CC[C@H]2C(=O)[O-])cc1.[Na+] [1·Na, sodium (2S,5R)-5-(2-chlorophenyl)-1-(2′-methoxy-[1,1′-biphenyl]-4-carbonyl)pyrrolidine-2-carboxylate] |
| 5 |  | > 64 |  |  |  | 96.7 | 75.9 | 99.3 | 23.6 | 88.5 | 71.4 | 28.1 | poorly soluble in water | COc1ccccc1-c1ccc(C(=O)N2[C@@H](c3ccccc3Cl)CC[C@H]2C(=O)O)cc1 [compound 1, (2S,5R)-5-(2-chlorophenyl)-1-(2′-methoxy-[1,1′-biphenyl]-4-carbonyl)pyrrolidine-2-carboxylic acid] |
